{
  "source": "patent US20040014721A1",
  "about": "“Method for using tethered bis(polyhydroxyphenyls) and O-alkyl derivatives thereof in treating inflammatory conditions of the central nervous system” (Oklahoma Medical Research Foundation, priority 2002, published 2004)",
  "key": {"LnCAP Production of PSA": {"test_system": "LnCAP Production of PSA", "test": "LnCAP production of PSA (ELISA)", "assay_type": "cell-based", "conditions": "Homo sapiens, LNCaP, 24 h", "procedure": "LnCAP prostate cancer cells were be cultured according to established methods (Horoszewicz et al., 1983). These cells product prostate-specific antigen (PSA), a serine protease that predicts metastatic potential ([…] et al., 2000). […] Each drug was tested in triplicate at each concentration. Medium was removed and tested for PSA concentration using a commercially available enzyme-linked immunosorbent assay (ELISA). Viability was determined in the adherent cells using the MTT assay."}, "C57/B6 mice": {"test_system": "C57/B6 mice", "test": "3-nitropropionic acid (3NP) striatal damage model, rotarod and balance beam", "assay_type": "in vivo", "conditions": "2500 ppm in diet for one month, then 3NP 50 mg/kg i.p. every 12 h for 5 days", "procedure": "Mice were then injected with 50 mg/kg 3NP intraperitoneally, every 12 h for 5 days. Motor performance was assessed daily by a rotarod task and balance was assessed by a balance wire task. In the rotarod task (Hensley et al. 2002), animals were placed on a bar rotating at 1 rpm and accelerating 10 rpm/minute until the animal fell from the bar. In the balance beam test, mice were placed on a 2-cm balance beam by suspending them by the tail, orienting them perpendicular to the beam, and placing the forepaws followed by hindpaws on the balance beam. Mice were left on the beam until they fell onto a soft cushion 75 cm below or until 5 min elapsed. The longest time of each pair of trials was used for statistical analysis."}, "rats": {"test_system": "rats", "conditions": "rat, in vivo, po; cited from earlier work"}, "[1]": {"test_system": "prostaglandin E2 (PGE2) release in TNFα-stimulated EOC-20 cells", "test": "PGE2 release in TNFα-stimulated EOC-20 cells", "assay_type": "cell-based, mouse", "conditions": "submicromolar concentrations", "excerpt": "Prostaglandin E2, a product of the cyclooxygenation of arachidonic acid released from membrane phospholipids, plays major roles in regulating brain injury and inflammation. Although prostaglandin E2 has frequently been considered as a possible inducer of brain damage and degeneration, it may exert beneficial effects in the CNS. Indeed, in spite of its classic role as a pro-inflammatory molecule, several recent in vitro observations indicate that prostaglandin E2 can inhibit microglial activation."}, "G93A-SOD1 mice [2]": {"test_system": "G93A-SOD1 mice", "procedure": "NDGA was formulated into AIN93G laboratory mouse chow at 2500 ppm (approximately […] intake/mouse/day). […] G93A-SOD1 mice and nontransgenic littermates were fed this NDGA-containing diet, or a control diet, beginning at 90 D of age. An observer blinded to the treatment groups tested the animals on the rotarod task at 100 D and every 5 days thereafter. […] This is a very important point, as most forms of human ALS are sporadic and prophylactic treatment is not practical."}, "[3]": {"test_system": "TNFα-Stimulated NO2^− Production in EOC-20 Cells", "test": "TNFα-stimulated nitrite (NO2−) production in EOC-20 microglial cells, Griess assay", "assay_type": "cell-based, mouse", "procedure": "Cells were cultured in 24 well plates until confluent then treated with test agent, which was dissolved at 100× final concentration in dimethylsulfoxide (DMSO), or with vehicle only. Thirty minutes after treatment with test agent, cells were treated with 10 ng/mL recombinant mouse TNFα (Pharmingen, San Diego, Calif. USA). […] Each compound was tested at 100 μM, 20 μM, 4 μM, 0.8 μM and 0 μM in the presence of TNFα. Four wells of cells were used for each concentration of test agent.\nLower IC50 values indicate improved efficacy. FIG. 2 illustrates the principle of the measurement using NDGA as an example test agent. In order to determine viability, cell culture medium was replaced with phenol-free DMEM (Gibco) containing 20 μL/mL of MTT viability reagent (Promega). […] Control cells were taken to indicate 100% viability and intermediate values of MTT reduction were scaled to percentage of control. For each compound, an LD50 value was determined by extrapolation through sublethal concentrations. This value represents the concentration that reduced the MTT viability parameter by 50%."}, "G93A-SOD1 mice [4]": {"test_system": "G93A-SOD1 mice", "test": "Immunochemistry of lumbar spinal cord of G93A-SOD1 mice on oral NDGA (GFAP, F4/80)", "assay_type": "in vivo, mouse", "procedure": "Mice were anesthetized with pentobarbital and perfused transcardially with 4% paraformaldehyde in phosphate buffer. The lumbar region (L1-L5) was processed for paraffin embedding. Immunochemistry was performed on […] sections, using commercially available antibodies, and tissue sections were routinely counterstained with hematoxylin and eosin. Polyclonal anti-SOD1 IgG was purchased from Chemicon (Temecula, Calif.). Polyclonal anti-5LOX IgG was purchased from Cayman Chemical (San Diego, Calif.). Monoclonal anti-5LOX was obtained from Transduction Laboratories (Lexington, Ky.). Polyclonal antibody against glial fibrillary acidic protein (GFAP) was purchased from Research Diagnostics International (Flanders, N.J.). FITC-conjugated anti-F4/80, which recognizes a microglial cell surface antigen (Drachman et al., 2002), was purchased from Serotec (Raleigh, N.C.). Positive control for 5LOX Western blots was SL-29 fibroblast lysate (Transduction Laboratories, provided with the antibody). Electrophoresis was performed on 4-20% gradient polyacrylamide gels, and bands were visualized with chemiluminescence detection reagents (Amersham).\nMicroglial proliferation is another neuroinflammatory feature inherent to motoneuron disease in the G93A-SOD1 mouse (Drachman et al., 2002). […]"}, "mice": {"test_system": "mice", "conditions": "cited from earlier work"}, "Water solubility": {"test": "Water solubility", "assay_type": "physicochemical"}},
  "note": "pIC50: −log10 of the molar value. Entries after “also recorded” stand apart in the source; their conditions may differ.",
  "data": [
    {"smiles": "C[C@H](Cc1ccc(O)c(O)c1)[C@@H](C)Cc1ccc(O)c(O)c1", "note": "[NDGA, 1,4-bis (3,4-Dihydroxyphenyl)-2,3-dimethylbutane]", "values": [
      {"measurement": "pIC50", "setting": "LnCAP Production of PSA", "result": 4.82},
      {"measurement": "balance test", "setting": "C57/B6 mice", "result": "significantly improved functional ability"},
      {"measurement": "rotarod test", "setting": "C57/B6 mice", "result": "significantly improved functional ability"},
      {"measurement": "LD50", "setting": "rats", "result": "more than 2000 mg/kg"},
      {"measurement": "inhibition of prostaglandin E2 (PGE2) release", "setting": "[1]", "result": "effective at submicromolar concentrations"},
      {"measurement": "inhibition of prostaglandin E2 (PGE2) release", "setting": "[1]; listed as NGDA", "result": "effectively inhibits prostaglandin E2 (PGE2)"},
      {"measurement": "RR (survival, logrank analysis)", "setting": "G93A-SOD1 mice [2]; 2500 ppm in chow from 90 D", "result": 0.27},
      {"measurement": "median age of death", "setting": "G93A-SOD1 mice [2]; 2500 ppm in chow from 90 D", "result": 140, "unit": "D"},
      {"measurement": "pathological effects at necropsy", "setting": "G93A-SOD1 mice [2]; mouse, in vivo", "result": "no pathological effects of the drug were observed"},
      {"measurement": "weight changes", "setting": "G93A-SOD1 mice [2]; mouse, in vivo", "result": "No weight changes were observed"},
      {"measurement": "extension of paralytic phase (onset of paralysis to death)", "setting": "G93A-SOD1 mice [2]; oral", "result": "approximately 40%"},
      {"measurement": "rotarod performance", "setting": "G93A-SOD1 mice [2]; oral", "result": "significantly improved rotarod performance"},
      {"measurement": "Onset of frank paralysis, mean ± SD", "setting": "G93A-SOD1 mice [2]; oral NDGA", "result": "121 ± 7.1", "unit": "D"},
      {"measurement": "Onset of frank paralysis, median", "setting": "G93A-SOD1 mice [2]; oral NDGA", "result": 120, "unit": "D"},
      {"measurement": "Time between onset and death, mean ± SD", "setting": "G93A-SOD1 mice [2]; oral NDGA", "result": "16.5 ± 7.9", "unit": "D"},
      {"measurement": "Time between onset and death, median", "setting": "G93A-SOD1 mice [2]; oral NDGA", "result": 14, "unit": "D"},
      {"measurement": "extension of median lifespan", "setting": "G93A-SOD1 mice [2]; oral, from 90 D", "result": 13, "unit": "D"},
      {"measurement": "prolongation of lifespan after start of treatment", "setting": "G93A-SOD1 mice [2]; oral, from 90 D", "result": 32, "unit": "%"},
      {"measurement": "NO2− suppression at 800 nM", "setting": "[3]; 800 nM", "result": "Significant NO2^− suppression"},
      {"measurement": "pIC50", "setting": "[3]; Mus musculus, read-out: IC50", "result": "5.30 to 5.52"},
      {"measurement": "potency relative to minocycline", "setting": "[3]; fold more potent than minocycline", "result": "approximately 16 times"},
      {"measurement": "F4/80-positive microglia, lumbar spinal cord", "setting": "G93A-SOD1 mice [4]; 120 D of age", "result": "diminished the number of F4/80-positive microglia"},
      {"measurement": "astrogliosis (GFAP-positive astrocytes), lumbar spinal cord", "setting": "G93A-SOD1 mice [4]; 120 D old mice", "result": "significantly diminished astrogliosis; also recorded: significantly decreased the number of GFAP-positive astrocytes"},
      {"measurement": "effects of long-term feeding", "setting": "mice; 0.5% of the diet, long-term, mice", "result": "no ill effects"},
      {"measurement": "LD50", "setting": "mice; mouse, in vivo, ip", "result": "greater than 500 mg/kg"},
      {"measurement": "water solubility", "setting": "Water solubility", "result": "limited water solubility"}
    ]}
  ]
}
